“Also recorded” adds a separate entry of the source.
Experiments:
[1] = tested on: Mouse dorsal root ganglion (DRG) cells; assay: Microfluidic based axon degeneration assay (axotomy, degeneration index); format: cell-based; conditions: for efficacy against Wallerian degeneration compared with FK866: tested at different concentrations; for Optimized Concentration used (from dose response curves): tested 2 hours following axotomy
Procedure: A poly-dimethylsiloxane (PDMS)-based microfluidic device described by Hosmane and colleagues was used for these experiments (see, FIG. 16) (see, Hosmane, et al., Lab Chip 2010, 10, 741-747). This device provisions a perikaryal compartment where nerve cells are first placed and a juxtaposed array of 200 microchannels towards which axons grow and through which they traverse to reach a third axonal compartment. Mouse dorsal root ganglion (DRG) cells were prepared from E12-13 embryos and plated to the perikaryal compartment. After 6-7 days of culture at 37° C. and 5% CO2, axons were cut using a razor blade with vehicle or reagents. Images of the axonal compartment were taken at various time intervals at 20× magnification. Images were then analyzed for degeneration index (DI) which indicates percentage of fragmented axons over total axonal area, and drug-treated axons were compared to vehicle treated or uninjured axons. Live time-lapse images were taken as needed.

[2] = tested on: IA-injured Thy1-eYFP-H mice; assay: CLARITY-based counts of axonal lesions in the CST after impact acceleration (IA) injury; format: in vivo, mouse; conditions: FK866 10 mg/kg i.p. immediately after injury then every 6 h, vs vehicle
Excerpt: IA injury was produced under gas anesthesia with 2% isoflurane. Under aseptic conditions and with the subject in a small-animal stereotactic frame, a 5-mm-diameter steel disc was glued on the exposed cranium between bregma and lambda to prevent skull fracture. The mouse was then placed prone on a foam bed under a hollow Plexiglas tube and secured with tape as described previously (see, Xu L, (2016) Exp Neurol 275:436-449). Injury was produced by dropping a brass weight from a height of 1 m through the Plexiglas tube onto the disk. In all cases except the impact dose-response study outlined below, that weight was 60 g. The foam bed was pulled immediately at the rebound of the weight off the metal disc, such as to prevent a second impact. The metal disc was then removed, scalp incision was closed with surgical staples, and the animal returned to cage for full recovery. Subjects with skull fractures confirmed with a surgical microscope were excluded from the study. […]
For 3D visualization and quantitative analysis of axonal injury of cleared brainstems, we used the software suite Imaris (Bitplane). […] For the detection and quantification of axonal swellings based on YFP and APP, the spot detection function for the whole CST volume from the pons to the pyramidal decussation or cervical spinal cord was used. […]

[3] = tested on: mice injured with impact-acceleration; assay: Pellet-reaching task after impact-acceleration traumatic brain injury; format: in vivo, mouse; conditions: drug administered continuously for 14 days post injury (osmotic pump); vs vehicle-treated mice
Procedure: Experiments were conducted to characterize the effects of SARM1 deletion or pharmacological SARM1 blockade on corticospinal-dependent motor deficits after traumatic brain injury (impact-acceleration). This was tested on the pellet-reaching task, i.e. the golden-standard to assess skilled function of the forelimbs in rodents relevant to a similar task used to assess fine motor function in humans. Specifically, experiments trained mice for 2 weeks before TBI in order to reach peak performance in the task. At that point the trained mice were injured with impact-acceleration. Experiments next measured their performance every day for two weeks post injury and comparisons were made between groups of mice administered FK866 and vehicle treated mice (control group).
Mice were placed under food restriction or 2 days to lose approximately 10% of their body weight. Following this, the shaping phase of the experiment was initiated: two mice were placed in the training chamber comprised of a clear Plexiglas chamber with ample food for 20 minutes for the first day, whereas one mouse was placed in the same chamber on day 2. The training chamber has a single slit through which the mouse can retrieve a pellet of food placed on the outside right in front of the slit. […] Retrieval attempts were recorded and characterized as successful only if a mouse retrieved the pellet and put it in its mouth. […]

Row | SMILES | efficacy against Wallerian degeneration compared with FK866 ([1]; axotomized DRG axons) | Optimized Concentration used (from dose response curves) [1] [nM] | other results
1 | N#CN=C(NCCCCCCOc1ccc(Cl)cc1)Nc1ccncc1 [CHS-828] | comparably strong efficacy | 250 | 
2 | O=C(/C=C/c1cccnc1)NCCCCC1CCN(C(=O)c2ccccc2)CC1 [FK866] |  | 100 | number (density) of axonal lesions per anatomical segment (CST×RST, pyramidal decussation, cervical cord) ([2]; 24 h after injury): significantly lower number of axonal lesions; total number of axonal lesions in the CST from the pons to cervical spinal cord ([2]; counted 24 h after injury, 10 mg/kg): significantly lower number of axonal lesions; also recorded: smaller number of axonal lesions; skilled motor function (pellet-reaching performance) [3]: significant preservation of skilled motor function; also recorded: maintain their pellet-reaching skill; optimal therapeutic window of treatment onset ([1]; FK866 given at 0, 2, 4, 6 hours following injury): within two to six hours of injury; delay of further fragmentation ([1]; axotomized DRG axons, treatment after the onset of visible fragmentation): still effective in delaying further fragmentation; protection against Wallerian degeneration (degeneration index) ([1]; axotomized DRG axons, treatment at 2 hours post-injury): Maximum protection against WD
3 | O=C(CCCCCCCn1cc(-c2cccnc2)nn1)Nc1ccccc1-c1ccccc1 [GPP78] | comparably strong efficacy | 1000 | 
4 | NC(=O)c1ccc[n+]([C@@H]2O[C@H](CO)[C@@H](O)[C@H]2O)c1 [NAR, nicotinamide riboside] |  |  | effect of added NAR on the protective effect of FK866 ([1]; FK866 and/or NAR at the time of injury): further augmented the protective effect of FK866
5 | NC(=O)c1ccc[n+]([C@@H]2O[C@H](COP(=O)([O-])O)[C@@H](O)[C@H]2O)c1 [NMN, nicotinamide mononucleotide] |  |  | effect of added NMN on the protection by NAMPT inhibition (FK866) ([1]; FK866 at time of injury, NMN added 0, 2, 4 hours post axotomy): reversed
6 | CC(C)(C)c1ccc(S(=O)(=O)NCc2ccc(C(=O)Nc3cccnc3)cc2)cc1 [STF31] | comparably strong efficacy | 2000 | 
7 | Cc1ccc(S(=O)(=O)Cc2nc(-c3ccc(C(=O)NCc4cccnc4)cc3)oc2C)cc1 [STF118804] | comparably strong efficacy | 250 | 
